Key:
Format in all cases: cell-based, mouse
[1] = test system: c-Jun N-terminal kinase (JNK) [c-Jun氨基端激酶(JNK)]; experiment: Western blot: JNK (MAPK family); conditions: BMMs
osteoclasts [破骨细胞] [2] = experiment: TRAP staining: RANKL-induced osteoclast differentiation from BMMs; conditions: RANKL induction 5 days, 0, 1, 2.5, 5, 10 μM NCTD
p38 kinase [p38激酶] = experiment: Western blot: RANKL-stimulated p38 phosphorylation; conditions: BMMs, RANKL 15 min; 0, 2.5, 5, 10 μM NCTD
[3] = test system: extracellular signal-regulated kinase (ERK) [细胞外信号调节激酶(ERK)]; experiment: Western blot: RANKL-stimulated ERK phosphorylation; conditions: BMMs, RANKL 15 min; 0, 2.5, 5, 10 μM NCTD
TRAP = experiment: Q-PCR of osteoclast marker gene: TRAP; conditions: RANKL 100 ng/ml, M-CSF 30 ng/ml, 5 days
BMM cells [BMMs] [4] = experiment: Annexin V-FITC/PI flow cytometry: apoptosis of BMMs; conditions: BMMs, 0, 2.5, 5, 10 μM NCTD, 48 h
CTSK = experiment: Q-PCR of osteoclast marker gene: CTSK; conditions: RANKL 100 ng/ml, M-CSF 30 ng/ml, 5 days
CTR = experiment: Q-PCR of osteoclast marker gene: CTR; conditions: RANKL 100 ng/ml, M-CSF 30 ng/ml, 5 days
NFATc1 = experiment: Q-PCR of osteoclast marker gene: NFATc1; conditions: RANKL 100 ng/ml, M-CSF 30 ng/ml, 5 days
osteoclasts [破骨细胞] [5] = experiment: TRAP staining: stage of osteoclast formation inhibited by NCTD; conditions: 5 μM NCTD
IκBα = IκBα degradation (NF-κB signalling pathway)
c-Fos = experiment: Q-PCR of osteoclast marker gene: c-Fos; conditions: RANKL 100 ng/ml, M-CSF 30 ng/ml, 5 days
[6] = MTT assay of the effect of NCTD on viability of bone-marrow-derived macrophages; conditions: mouse, bone marrow macrophages; MTT, BMMs, 48 h; read-out: concentration from which BMM activity begins to be affected
BMM cells [BMMs] [7] = experiment: as above
[8] = pretreatment (12 h before RANKL)

## O=C1OC(=O)C2C3CCC(O3)C12 (stereo not shown) [NCTD, 去甲斑蝥素]
[1]; RANKL 15 min, 0, 2.5, 5, 10 μM NCTD
  inhibition of JNK: 没有明显抑制作用
[1]; RANKL-stimulated
  JNK phosphorylation: 没有影响
Osteoclasts [破骨细胞] [2]
  osteoclast formation (osteoclast number and area): 能够明显抑制破骨细胞的生成,且呈剂量依赖性关系
p38 kinase [p38激酶]
  p38 phosphorylation: 明显受到抑制
[3]
  ERK phosphorylation: 明显受到抑制
TRAP
  TRAP expression: 浓度依赖地抑制
BMM cells [BMMs] [4]
  apoptosis: 不会引起细胞凋亡
CTSK
  CTSK expression: 浓度依赖地抑制
CTR
  CTR expression: 浓度依赖地抑制
NFATc1
  NFATc1 expression: 浓度依赖地抑制
Osteoclasts [破骨细胞] [5]; early treatment (first 2 days of induction)
  osteoclast number and area: 能够显著改变破骨细胞数量和面积
Osteoclasts [破骨细胞] [5]; late treatment (last 3 days of induction)
  osteoclast area: 对破骨细胞面积没有明显影响
Osteoclasts [破骨细胞] [5]; [8]
  osteoclast formation: 在一定程度上可抑制破骨细胞形成
  osteoclast number and size vs control: 均有明显差异
Osteoclasts [破骨细胞] [5]; pretreatment + whole-course treatment
  inhibition of osteoclast differentiation: 对破骨细胞分化抑制最为明显
Osteoclasts [破骨细胞] [5]; whole-course treatment (5 days)
  inhibition of osteoclast differentiation: 对破骨细胞分化抑制最为明显
IκBα; BMMs, RANKL-stimulated
  IκBα degradation: 没有抑制IκBα的降解
IκBα; by IκBα degradation
  RANKL-activated NF-κB signalling pathway: 没有明显影响
c-Fos
  c-Fos expression: 浓度依赖地抑制
[6]
  MCC at 48 h: 20 µM
BMM cells [BMMs] [7]; Mus musculus, Macrophage, MTT, BMMs, 48 h, 0-320 μM NCTD, GraphPad Prism, read-out: half-inhibitory concentration (IC50) on BMMs
  IC50: 59.7 µM
BMM cells [BMMs] [7]; at 10 μM and below
  toxicity to BMM cells: 无毒性作用

From CN108992440A, “去甲斑蝥素在制备治疗破骨细胞过度激活相关疾病药物中的应用” (priority 2018, dated 2018)
